Measurements as given in PubChem BioAssay (NCI).
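Following 48 hours of exposure in 96-well plates, responses at five concentrations were used to interpolate endpoints linearly. GI50: concentration for 50% inhibition of growth. TGI: concentration producing complete growth inhibition.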

Legend:
Test in all cases: growth of human tumour cells (NCI), 48 h
SW-620 colon = system: SW-620 colon
MALME-3M melanoma = system: MALME-3M melanoma
KM12 colon = system: KM12 colon
T-47D breast = system: T-47D breast
NCI/ADR-RES ovarian = system: NCI/ADR-RES ovarian
SF-268 CNS = system: SF-268 CNS
MOLT-4 leukemia = system: MOLT-4 leukemia
K-562 leukemia = system: K-562 leukemia
SNB-19 CNS = system: SNB-19 CNS
HL-60(TB) leukemia = system: HL-60(TB) leukemia

SMILES	GI50 (SW-620 colon) [µM]	TGI (SW-620 colon) [µM]	GI50 (MALME-3M melanoma) [µM]	TGI (MALME-3M melanoma) [µM]	GI50 (KM12 colon) [µM]	TGI (KM12 colon) [µM]	GI50 (T-47D breast) [µM]	TGI (T-47D breast) [µM]	GI50 (NCI/ADR-RES ovarian) [µM]	TGI (NCI/ADR-RES ovarian) [µM]	GI50 (SF-268 CNS) [µM]	TGI (SF-268 CNS) [µM]	GI50 (MOLT-4 leukemia) [µM]	TGI (MOLT-4 leukemia) [µM]	GI50 (K-562 leukemia) [µM]	TGI (K-562 leukemia) [µM]	GI50 (SNB-19 CNS) [µM]	TGI (SNB-19 CNS) [µM]	GI50 (HL-60(TB) leukemia) [µM]	TGI (HL-60(TB) leukemia) [µM]
CC/C(=N/N=C(N)N)c1ccc(NC(=O)Nc2ccc(/C(CC)=N/N=C(N)N)cc2)cc1	8.29	55.6	8.24	54.5	3.49	20.1	5.81	74.1	24.7	> 100	12.8	> 100	2.07	6.51	1.06	7.25	8.55	85	2.85	21.8
COc1ccc2c(c1)C(=O)c1c-2c(N2CCN(C(=O)CCNCCNCCO)CC2)nc2ccccc12	2.26	5.17	26.6	58	16.3	53.1	13.4	29.8	18	36.1	14.3	36.9	5.05	22.9	2.97	7.34	17.5	38	10.3	25.8
CC(C)[C@H](C(=O)O[C@@H]1/C=C/C(=O)O[C@@H](C)CCC/C=C/[C@@H]2C[C@H](O)C[C@H]21)N(C)C	6.35	21.8	6.97	32.1	3.65	11	31	> 100	14.9	> 87.8	5.25	41.9	14.9	42.2	23.7	58.1	30.2	> 100	28.2	50.7
O=c1c2cc(O)c(O)cc2oc2cc(O)c(C3OC(CO)C(O)C(O)C3O)c(O)c12 (stereo not given)		> 100		> 100		> 100		> 100		> 100		> 100		> 100		> 100		> 100		> 100
Fc1ccc(-c2c(-c3ccncc3)[nH]c3nccnc23)cc1	13.6	> 25	> 9.39	> 17.4	8.92	> 25	7.09	> 25	16.1	> 25	10.9	> 25	> 25	> 25	> 25	> 25	> 20.3	> 25	16.3	> 25
Oc1cccc(-c2nc(-c3ccccc3)[nH]c2-c2ccncc2)c1	9.39	> 23.4	0.719	8.01	13	> 25	9.31	24.3	> 25	> 25	24.3	> 25	24.9	> 25	11.7	> 25	> 25	> 25	7.77	19.4
